The record followed here is patent publication US8119844B2, “Alcohol production process” (LanzaTech New Zealand Limited, priority 2008, dated 2012).

The structures appear in SMILES notation. Like-named read-outs stand apart in the source and are kept apart here.

Experiment [1] relates to Clostridium pasteurianum. The settings on record: for Acetate Consumption / Acetate Consumption (percent of starting acetate) / Final Acetate / Final Butanol / Final Butyrate / Glycerol Consumption: 30 g/l glycerol, after 3 days of fermentation. How it is done: LM31 media at pH 7.4 was prepared as follows. All ingredients with the exception of Cysteine-HCl were mixed in 400 ml distilled water. This solution was made anaerobic by heating to boiling and allowing it to cool to room temperature under a constant flow of N2 gas. Once cool, the Cysteine-HCl was added and the pH of the solution adjusted to 7.4 before making the volume up to 1000 ml; anaerobicity was maintained throughout the experiments.
Bacteria: Clostridium pasteurianum were obtained from the German Resource Centre for Biological Material (DSMZ). The accession number given to the bacteria is DSMZ 525.
Incubation was performed in 234 ml sealed serum bottles each containing 50 ml of the media LM31. The 184 ml headspace of each serum bottle was first flushed three times with N2 gas, before being evacuated and filed to an overpressure of 5 psig. Each bottle was inoculated with 1 ml of a Clostridium pasteurianum culture. A shaking incubator was used and the reaction temperature was maintained at 37° C.
Media samples were taken at intervals over a 3 day period. Each time the media was sampled care was taken to ensure that no gas was allowed to enter into or escape from the serum bottle.
All samples were used to establish the absorbancy at 600 nm (spectrophotometer) and the level of substrates and products (GC or HPLC). HPLC was routinely used to quantify the level of glycerol, methanol, acetate, and ethanol. When n-butyric acid and butanol were present, GC was used in combination with HPLC to quantify the levels of all substrates and products (glycerol, acids and alcohols).
The aim was to test the effect of initial acetate concentration on glycerol fermentation by Clostridium pasteurianum to produce butanol.

Experiment [2] relates to Clostridium pasteurianum. Briefly: Effect of methanol on the fermentation of glycerol to butanol (serum bottle). The class given is cell-based. The settings on record: for Acetate Consumption / Final Butanol / Final Butyrate / Glycerol Consumption: 30 g/l glycerol, 2 g/l acetate, after 36 hours of fermentation. From the text:
In this experiment, the effect of methanol on the conversion of commercial glycerol to butanol was studied. […] In addition, acetate and glycerol consumption decreased.

Experiment [3] deals with Clostridium pasteurianum. In words: Comparison of fermentation of commercial glycerol and glycerol from biodiesel waste for butanol production. Type of experiment: cell-based. The settings on record: 30 g/l commercial glycerol, 2 g/l acetate, after 36 hours of fermentation. The procedure:
Thirty grams biodiesel waste was dissolved in water up to 100 ml and stirred until the solution was homogenous. While stirring, 10% Hydrochloric acid solution was added until pH was below 3.0, so total coagulation of free fatty acid would occur. In order to improve the phase separation, the sample was centrifuged for 1 minute at 4,000 g. At this stage 3 phases could be seen: the top layer appeared oily and contained mostly FAME (Fatty acid methyl ester); the middle phase contained mostly coagulated free fatty acids; and, the bottom phase (aqueous phase) was clear and contained mostly water, glycerol and methanol. The aqueous phase was withdrawn carefully, filtered on a 0.2 μm filter and pH was then raised to pH 7.0 by addition of Sodium hydroxide. At this stage, methanol was evaporated by heating the solution under stirring and vacuum maintained with a water-jet. Finally water can be added in order to dilute the glycerol solution.
The aim of this experiment was to test the glycerol obtained from biodiesel waste, in a fermentation with Clostridium pasteurianum to produce butanol, in the presence of 2 g/l acetate initial concentration. The conversion of commercial glycerol (first row) was compared with glycerol obtained from biodiesel waste containing methanol (second row) or where methanol was evaporated (last row). […] Levels of butanol and biomass were the highest for bacteria growing on glycerol obtained from biodiesel, where methanol was evaporated. Acetate (50%) was also consumed.

`CC(=O)O` [Acetate, Acetic acid, glacial, 99.8%]: in experiment [1] (starting acetate 1.4 g/l), the “Acetate Consumption” value amounted to 0.4 g/L, the “Acetate Consumption (percent of starting acetate)” value is given as 28%, the “Final Acetate” value worked out at 1.0 g/L and the “Final Butanol” value came out at 3.0 g/L. Further, in experiment [1] (starting acetate 1.4 g/l), the “Final Butyrate” value turned out to be 0.5 g/L and the “Glycerol Consumption” value was determined as 12 g/L. In addition, in experiment [1] (starting acetate 2.2 g/l), the “Acetate Consumption” value stood at 1.0 g/L, the “Acetate Consumption (percent of starting acetate)” value amounted to 45%, the “Final Acetate” value was found to be 1.2 g/L and the “Final Butanol” value was determined as 3.5 g/L. Also, in experiment [1] (starting acetate 2.2 g/l), the “Final Butyrate” value stood at 0.7 g/L and the “Glycerol Consumption” value was found to be 13 g/L. For the same compound, in experiment [1] (starting acetate 3.5 g/l), the “Acetate Consumption” value is 1.6 g/L, the “Acetate Consumption (percent of starting acetate)” value is 45%, the “Final Acetate” value is 1.9 g/L and the “Final Butanol” value was found to be 3.1 g/L. Moreover, in experiment [1] (starting acetate 3.5 g/l), the “Final Butyrate” value worked out at 1.1 g/L and the “Glycerol Consumption” value turned out to be 12 g/L. Besides, the “acetate consumed in the course of the reaction” value in experiment [1] (increasing amounts of acetate added at the start of the fermentation) is “up to 45%”.
On to `CO` [Methanol], for which, in experiment [2] (starting methanol 5.6 g/l), the “Acetate Consumption” value was 0.8 g/L, the “Final Butanol” value stood at 2.4 g/L, the “Final Butyrate” value was 0.8 g/L and the “Glycerol Consumption” value was 14 g/L. For the same compound, in experiment [2] (starting methanol 11.2 g/l), the “Acetate Consumption” value came to 0.8 g/L, the “Final Butanol” value worked out at 2.0 g/L, the “Final Butyrate” value turned out to be 0.6 g/L and the “Glycerol Consumption” value turned out to be 13 g/L. Moreover, in experiment [2] (starting methanol 16.3 g/l), the “Acetate Consumption” value stood at 0.6 g/L, the “Final Butanol” value was 1.1 g/L, the “Final Butyrate” value came out at 0.6 g/L and the “Glycerol Consumption” value turned out to be 11 g/L. The “effect on the bacteria and butanol production” value in experiment [2] (increasing amounts of methanol, commercial glycerol) is listed as “increasing inhibitory effect”.
Consider `OCC(O)CO` [commercial glycerol, glycerol], for which, in experiment [3], the “Acetate Consumption” value was 1.0 g/L, the “Acetate Consumption (percent)” value was 50%, the “Final Butanol” value turned out to be 2.9 g/L and the “Final Butyrate” value turned out to be 0.7 g/L. The “Glycerol Consumption” value in experiment [3] turned out to be 15 g/L.
